The values that follow come from PubChem BioAssay (NCI).

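All cell lines were grown in 96-well plates and treated with compound for 48 hours. GI50: concentration for 50% inhibition of growth. The concentration for full growth arrest is given as TGI.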

Some test systems named below: A549 NSCLC; EKVX NSCLC; HS 578T breast; M14 melanoma; NCI-H23 lung; NCI-H460 lung; NCI-H522 lung; RXF 393 renal; SW-620 colon; UACC-62 melanoma.
Holding throughout (test): growth of human tumour cells (NCI), 48 h

Take `CO[C@H]1/C=C/C=C/C=C/C[C@H](OC(=O)[C@@H](C)NC(=O)C2CCCCC2)[C@H](C)[C@@H](O)/C(C)=C\CCC2=CC(=O)C=C(NC(=O)C1)C2=O`: the GI50 with A549 NSCLC is 188 nM; in the assay on EKVX NSCLC it was 174 nM; in the assay with HS 578T breast it was 119 nM; with M14 melanoma, 119 nM; with NCI-H23 lung it was 115 nM; with NCI-H460 lung it was 111 nM. Moreover, the GI50 with NCI-H522 lung is 104 nM; with RXF 393 renal, 94.5 nM; in the assay on SW-620 colon it was 179 nM; with UACC-62 melanoma, 80.1 nM. Also, the TGI in the assay on A549 NSCLC was 1920 nM; in the assay with EKVX NSCLC, 2250 nM; in the assay on HS 578T breast, 590 nM; in the assay with M14 melanoma it was 746 nM; in the assay with NCI-H23 lung it was 812 nM; in the assay on NCI-H460 lung, 1140 nM. Moreover, the TGI with NCI-H522 lung turned out to be 823 nM; with RXF 393 renal, 346 nM; in the assay on SW-620 colon it was 3.63 µM; in the assay on UACC-62 melanoma, 682 nM.
